# Read-outs that look alike come from different tables or passages of the source.
# Columns and labels:
# humans = conditions: cited from earlier work
# conscious mongrel dog = conditions: in vivo
# Source text: A system for recording electrocardiogram data in accordance with the present invention is broadly shown in FIG. 6 as reference numeral 100. […] The vehicle or test compound may be administered in various ways, including but not limited to orally, intravenously, or subcutaneous.
# Heart rate (RR interval) and Lead II ECG data are collected continuously on a beat-to-beat basis at a sampling rate of 1000 Hz to allow for millisecond (ms) resolution. Using the sampled data, the QT interval and preceding RR interval are measured on individual cardiac cycles using commercially available data acquisition and analysis software. The software package used in support of the data presented here was from Gould Inc. (Po-Ne-Mah) subsidiary. This software permits visual validation of the determination of end points used in the calculation of the ECG time intervals. The collection of data is not limited to any particular method. For example, ECG time intervals can be measured using a ECG strip chart recorder. Thus, both manual and electrical data collection is possible with the present invention.
# The various treatments with vehicle or compounds are studied in a randomized fashion.
# Approximately 250 to 300 consecutive cardiac cycles are analyzed for a pre-dose period and during steady-state compound exposure. This encompasses between three to five minutes of continuous data for each data collection period. […] An asymptotic decaying exponential growth curve fit is used to describe the relationship between QT and RR interval:
# QT=A−B*exp(−C*RR/1000) (1)
# Equation (1) is used to fit the QT measurements to the preceding RR interval for each separate data set of consecutive cardiac cycles. The data from each sample period for each vehicle or compound dose is fit to the equation using a least squares nonlinear regression method such as, but not limited to, Quasi Gauss-Newton.
# The upper 95% confidence limit for the difference of the curves is determined for each of the dose-to-pre-dose comparisons. If the dose curve crosses the 95% limit, the QT and RR values and the direction of crossing is noted.
# The analysis of the compound versus vehicle effect on QT is also accomplished by comparisons of the number of prolonged points exceeding the 95% confidence interval of their respective pre-dose curves. The pre-dose curve value represents the least squares estimate of QT at that value of RR. The 95% limits are then used to compare the overall effect of the treatment (compound or vehicle) to that of the pre-dose response. The confidence limits of the two curves are combined (pooled) to determine the standard error of the difference between the pre-dose and post-dose curves. […] The extent of the confidence and prediction limits depends on the overall variability of the data and the values of the coefficients.
# The number of pre-dose data that exceed the upper 95% prediction limit (referred to herein as “outliers”) is compared to the number of post-dose data that exceed the limit for each of the time periods. A repeated measures test for significant difference between pre-dose and post-dose outliers is conducted to evaluate an effect. In the case of small but consistent effects, the repeated measures test detects significant differences better than individual tests. […] To minimize the chance of false negatives, β, conventionally known as “Type II errors,” no multiple comparison adjustments are made for the individual tests.
# Once the outliers are identified, they are compared to the pre-dose curve to estimate the magnitude of prolongation, ΔQT, above the QT-RR curve fit to the pre-dose data. The magnitude of prolongation is referenced to the curve rather than the upper 95% confidence bound because the curve is the best estimate of the QT-RR functional relationship, regardless of the number of data points.
Compound,"QTc, clinically (humans; clinical)",QT prolongation and sudden death in humans (humans),Treatment crosses pre-dose curve (conscious mongrel dog),number and magnitude of the outliers compared to the pre-dose and vehicle response (conscious mongrel dog),post-dose curve versus pre-dose curve (conscious mongrel dog),#outliers/total (QT exceeding 95% confidence bounds of pre-dose curve) (conscious mongrel dog; mongrel),RR at crossing point of post-dose and pre-dose curves (conscious mongrel dog; mongrel),mean ΔQT (of QT exceeding 95% confidence bounds of pre-dose curve) (conscious mongrel dog; mongrel),ΔQT range (of QT exceeding 95% confidence bounds of pre-dose curve) (conscious mongrel dog; mongrel),"QTRR1000 (least squares estimate of QT at RR 1000 ms, mean ± SEM from curve fit) (conscious mongrel dog; mongrel, iv)","QTc, clinically (humans; human, in vivo)"
COc1cc(N)c(Cl)cc1C(=O)NC1CCN(CCCOc2ccc(F)cc2)CC1OC (stereo not shown) [cisapride],"clear, dose-dependent increase in QTC",caused QT prolongation and sudden death,Yes:RR =,significant increase,not significantly greater than the pre-dose curve,130/324,1094 ms,12,5 - 47,240 ± 18,
CC(C)NCC(O)c1ccc(NS(C)(=O)=O)cc1 (stereo not shown) [sotalol],,caused QT prolongation and sudden death,,,,,,,,,
CC(C)(C)c1ccc(C(O)CCCN2CCC(C(O)(c3ccccc3)c3ccccc3)CC2)cc1 (stereo not shown) [terfenadine],,,,significant increase,,,,,,,"clear, dose-dependent increase in QTC"
